Experimental data taken from patent US6124287A, “Imidazo[1,2-a]quinoxalin-4-amines active as adenosine antagonists, process for their preparation and pharmaceutical compositions thereof” (Biomedica Foscama Industria Chimicofarmaceutica S.p.A., priority 1995, dated 2000).
Blank lines part the entries; values can stand above or below the compound they belong to.

Columns and labels:
A1 receptors [1] = target: T1, A1 receptors (Rattus norvegicus, UniProt P25099); assay: Binding on A1 receptors, rat brain synaptosomial membranes, [3H]-DPCPX; details: 0.3 nM [3H]-DPCPX, 1 h, 25° C., pH 7.4
T1 construct: preparations of synaptosomial membranes from rat brain; from tissue; host or cells: rat brain synaptosomal membranes
T1 sequence (P25099 1-326): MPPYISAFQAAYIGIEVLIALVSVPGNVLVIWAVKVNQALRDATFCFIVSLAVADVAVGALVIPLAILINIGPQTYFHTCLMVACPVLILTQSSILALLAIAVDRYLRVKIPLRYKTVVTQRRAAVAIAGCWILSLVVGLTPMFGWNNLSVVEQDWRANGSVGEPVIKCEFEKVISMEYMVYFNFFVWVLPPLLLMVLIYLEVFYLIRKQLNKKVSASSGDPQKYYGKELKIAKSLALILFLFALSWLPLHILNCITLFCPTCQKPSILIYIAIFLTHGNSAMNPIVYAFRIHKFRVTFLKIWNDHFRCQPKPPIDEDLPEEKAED
Protocol: (§1) Binding on the adenosine receptors.
The binding on A1 receptors has been carried out according to the method described in Naunyn-Schmied. Arch. Pharmacol. 1987, 336, 204 on preparations of synaptosomial membranes from rat brain by incubating 200 μg of membrane proteins for 1 h at 25° C. with the substance to be tested and 0.3 nM [^3 H]-DPCPX in 400 μl of 50 mM Tris.HCl pH=7.4. The non-specific binding has been determined with […].
(§2) The incubations were blocked by filtration by means of a cell-harvester and, after completion of the separation of the bound from the free, the radioactivity contents were evaluated by liquid scintillation. The concentration-inhibition curves were obtained by assaying the receptor displacement at at least ten different concentrations of the test substance (all the assays were carried out in triplicate). The tested substances were dissolved in dimethyl sulphoxide and diluted in 50 mM Tris.HCl buffer pH=7.4. The IC50 values have been determined by non-linear regression curves and transformed into Ki values according to the Cheng-Prusoff equation.

Forced swim test = type: in vivo, Male ablino CD 1 mice; details: 1 h before immersion
Protocol: Forced swim test The test described by R. D. Porsolt et al. in Arch.Int.Pharmacodyn.Ther. 1977, 229, 327, has been carried out which is widely used as an animal model for the study of the antidepressant activity of new drugs. Male ablino CD 1 mice weighing 25-35 g were used. One hour before immersion in water, the test compound is intraperitoneally (i.p.) administered to the animal; the vehicle is administered to the control animals. The duration of permanence in water is 6'; from the 2nd to the 6th minute the time is measured during which the animal remains motionless. […] As the reference substance the tricyclic antidepressant drug desipramine was used.

A1 receptors [2] = target: T2, A1 receptors (Rattus norvegicus, UniProt P30543); assay: Binding on receptors (printed A1) of rat striatal membranes, [3H]-CGS21680 + CPA; details: 5 nM [3H]-CGS21680, 50 nM CPA, 1 h, 25° C.
T2 construct: preparations of rat striatal membranes; from tissue; host or cells: rat striatal membranes
T2 sequence (P30543 whole entry): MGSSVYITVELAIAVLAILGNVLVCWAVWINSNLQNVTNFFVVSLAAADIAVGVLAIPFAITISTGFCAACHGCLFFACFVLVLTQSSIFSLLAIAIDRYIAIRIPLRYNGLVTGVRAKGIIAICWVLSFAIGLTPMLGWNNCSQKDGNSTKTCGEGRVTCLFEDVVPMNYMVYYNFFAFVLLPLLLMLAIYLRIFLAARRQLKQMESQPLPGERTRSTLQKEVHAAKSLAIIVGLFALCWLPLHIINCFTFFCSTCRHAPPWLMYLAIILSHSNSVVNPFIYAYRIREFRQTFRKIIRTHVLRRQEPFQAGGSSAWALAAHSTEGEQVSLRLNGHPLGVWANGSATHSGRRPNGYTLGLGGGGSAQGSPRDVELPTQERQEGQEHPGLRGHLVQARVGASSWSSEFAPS
Protocol: as §1
The binding on […] receptors has been carried out according to the method described in FASEB J. 1989, 3, A1047 on preparations of rat striatal membranes by incubating 200 μg of membrane proteins for 1 h at 25° C. with the substance to be tested, 5 nM [^3 H]-CGS21680 and 50 nM CPA. The non-specific binding has been determined with 100 nM CPA.
as §2

Tail suspension test = type: in vivo, Male albino CD 1 mice; details: half an hour before test
Protocol: Tail suspension test The test described by L. Steru, et al. in Psychopharmacology 1985, 85, 367, also widely used as an animal model for the screening of antidepressant activity has been carried out. Male albino CD 1 mice weighing 25-35 g were used. Half an hour before the test, the animal is administered the test compound by the i.p. route; the control animals are administered the vehicle. The mouse is suspended from a horizontal bar at about 40 cm from the support plane by means of an adhesive tape applied at the end of the tail and secured to a hook. […] As the reference substance the tricyclic antidepressant drug desipramine was used.

adenosine receptors = details: cited from earlier work

Ki (A1 receptors [1]): 23.5 nM
SMILES: Clc1ccc2nc(NC3CCCC3)c3nccn3c2c1 [COMPOUND EX. 18, 4-cyclopentylamino-8-chloroimidazo[1,2-a]quinoxaline]
% variation immobility time vs. C. (Forced swim test; 1 mg/kg i.p.): -42.3%
% variation immobility time vs. C. (Forced swim test; 10 mg/kg i.p.): -52.8%

SMILES: Cc1cnc2c(N3CCCCC3)nc3ccccc3n12 [COMPOUND EX. 13, 1-methyl-4-piperidinylimidazo[1,2-a]quinoxaline]
% variation immobility time vs. C. (Forced swim test; 0.1 mg/kg i.p.): -23.5%
% variation immobility time vs. C. (Forced swim test; 1 mg/kg i.p.): -70.7%

Ki (A1 receptors [1]): 26.5 nM
SMILES: Clc1cc2nc(NC3CCCC3)c3nccn3c2cc1Cl [COMPOUND EX. 22, 4-cyclopentylamino-7,8-dichloroimidazo[1,2-a]quinoxaline]

SMILES: Cc1cnc2c(NC3CCCCC3)nc3ccc(Cl)cc3n12 [COMPOUND EX. 21, 4-cyclohexylamino-8-chloro-1-methylimidazo[1,2-a]quinoxaline]
% variation immobility time vs. C. (Forced swim test; 0.001 mg/kg i.p.): -33.0%
% variation immobility time vs. C. (Forced swim test; 0.01 mg/kg i.p.): -48.6%

Ki (A1 receptors [1]): 7.9 nM
Ki (A1 receptors [2]): 2500 nM
SMILES: Cc1cnc2c(NC3CCCC3)nc3ccccc3n12 [COMPOUND EX. 9, 4-cyclopentylamino-1-methyl imidazo [1,2-a]quinoxaline]
% variation immobility time vs. C. (Forced swim test; 0.001 mg/kg i.p.): -32.8%
% variation immobility time vs. C. (Forced swim test; 0.01 mg/kg i.p.): -45.3%
% variation immobility time vs. C. (Tail suspension test; 0.001 mg/kg i.p.): -26.7%
% variation immobility time vs. C. (Tail suspension test; 0.01 mg/kg i.p.): -41.1%
% variation immobility time vs. C. (Tail suspension test; 0.1 mg/kg i.p.): -64.3%

SMILES: CNCCCN1c2ccccc2CCc2ccccc21 [DESIPRAMINE, reference compound]
% variation immobility time vs. C. (Forced swim test; 7.5 mg/kg i.p.): -10.4%
% variation immobility time vs. C. (Forced swim test; 30 mg/kg i.p.): -41.4%
% variation immobility time vs. C. (Tail suspension test; 4 mg/kg i.p.): -21.3%
% variation immobility time vs. C. (Tail suspension test; 16 mg/kg i.p.): -62.4%

SMILES: Cn1c(=O)c2c(ncn2C)n(C)c1=O [caffeine, 1,3,7-trimethylxanthine]
affinity to the adenosine receptors (adenosine receptors): low affinity

Ki (A1 receptors [1]): 54 nM
SMILES: CCC(CC)Nc1nc2ccccc2n2c(C)cnc12 [COMPOUND EX. 5, 4-(1-ethylpropylamino)-1-methylimidazo[1,2-a] quinoxaline]

SMILES: Cn1c(=O)c2[nH]cnc2n(C)c1=O [theophylline, 1,3-dimethylxanthine]
affinity to the adenosine receptors (adenosine receptors): low affinity

SMILES: Cc1cnc2c(N3CCN(C)CC3)nc3ccccc3n12 [COMPOUND EX. 16, 1-methyl-4(N'-methylpiperazinyl)imidazo[1,2-a]quinoxaline]
% variation immobility time vs. C. (Forced swim test; 0.1 mg/kg i.p.): -22.4%
% variation immobility time vs. C. (Forced swim test; 1 mg/kg i.p.): -51.4%

Ki (A1 receptors [1]): 84 nM
SMILES: Fc1ccc2nc(NC3CCCC3)c3nccn3c2c1 [COMPOUND EX. 25]
